# Assay results reported in patent US10005824B2, “Selective PYY compounds and uses thereof” (Novo Nordisk A/S, priority 2015, dated 2018).
# What was measured:
# human Y1 receptor = target: T1, human Y1 receptor (Homo sapiens, UniProt P25929); assay: Scintillation proximity assay (SPA) receptor binding, Y1
# T1 construct: expressed in transfected cells; host or cells: BHK-21 clone 6-482-8, IPTG-induced (membrane preparation)
# T1 sequence (P25929 1-384): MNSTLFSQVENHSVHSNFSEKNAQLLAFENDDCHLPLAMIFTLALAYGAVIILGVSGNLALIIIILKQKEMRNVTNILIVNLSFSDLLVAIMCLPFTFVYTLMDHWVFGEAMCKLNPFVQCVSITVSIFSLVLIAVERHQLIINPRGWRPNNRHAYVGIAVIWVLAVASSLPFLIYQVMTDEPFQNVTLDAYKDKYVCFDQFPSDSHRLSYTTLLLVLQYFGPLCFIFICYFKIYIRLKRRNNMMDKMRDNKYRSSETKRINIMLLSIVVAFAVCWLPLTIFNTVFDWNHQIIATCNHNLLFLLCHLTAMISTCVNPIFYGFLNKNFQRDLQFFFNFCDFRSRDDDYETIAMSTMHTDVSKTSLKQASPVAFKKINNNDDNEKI
# Experimental: (§1) The purpose of this example is to test the in vitro binding of the PYY compounds to the Y1, Y2, Y4 and Y5 receptor subtypes, respectively. The receptor binding affinity is a measure of affinity of a compound for the human Y1, Y2, Y4 and Y5 receptor subtypes, respectively.
# (§2) Scintillation Proximity Assay (SPA)
# (§3) NPY-Receptor Expressing Cell Lines.
# (§4) All cells were cultured at +37° C. in a humidified atmosphere with 5% CO2. […] CHO-K1 cells stably expressing the human Y2 receptor (P49146, NPY2R_HUMAN, Uniprot) were cultured in DMEM F-12 with 10% FBS, 1% P/S, 150 μg/ml Hygromycin B and 10 μg/ml Puromycin antibiotic. CHO-K1 cells stably expressing the human Y4 receptor (P50391, NPY4R_HUMAN, Uniprot) were cultured in DMEM F-12 with 10% FBS, 1% P/S, 10 μg/ml Puromycin. HEK-293 cells stably expressing the human Y5 receptor (Q15761, NPY5R_HUMAN, Uniprot) were cultured in DMEM F-12 medium containing 10% FBS, 1% Penicillin-Streptomycin, 250 μg/ml G418 and 1 μg/ml puromycin.
# The homogenate was centrifuged at 35000 g using an ultracentrifuge for 10 minutes at +4° C. and the supernatant was discarded and fresh homogenization buffer added. Homogenization of the pellet was repeated a total of three times.
# Human Y receptor SPA binding assay were performed in white 96-well plates in a total volume of 200 μl per well.
# (§5) Plates were sealed and incubated at +25° C. for 2 hours in a plate shaker set at 400 rpm and thereafter centrifuged at 1500 rpm for 10 minutes prior to reading of luminescence on a microplate scintillation and luminescence counter. […] Displacement of radioligand was measured as reduction in luminescence and IC50 values were calculated by nonlinear regression analysis of sigmoidal dose-response curves.
# human NPY Y2 receptor = target: T2, human NPY Y2 receptor (Homo sapiens, UniProt P49146); assay: Actone functional potency assay (Y2 in vitro potency, whole cell); assay type: cell-based
# T2 construct: host or cells: HEK-293 cells that also express a cAMP-sensitive calcium channel
# T2 sequence (P49146 1-381): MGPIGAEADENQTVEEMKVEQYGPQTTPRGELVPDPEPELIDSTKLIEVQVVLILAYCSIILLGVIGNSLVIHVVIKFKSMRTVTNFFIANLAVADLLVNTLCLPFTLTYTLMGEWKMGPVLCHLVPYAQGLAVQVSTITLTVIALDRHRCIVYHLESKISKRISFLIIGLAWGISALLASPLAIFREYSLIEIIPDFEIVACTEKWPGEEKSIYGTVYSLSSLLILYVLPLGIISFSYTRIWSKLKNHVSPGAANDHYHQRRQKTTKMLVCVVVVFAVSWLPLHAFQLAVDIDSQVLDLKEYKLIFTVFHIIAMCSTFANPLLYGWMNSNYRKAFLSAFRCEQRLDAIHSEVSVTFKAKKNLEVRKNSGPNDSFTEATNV
# Source text: The purpose of this example is to test the activity, or potency, of the PYY compounds in vitro. The Y2 in vitro potency is the measure of the activation of the human Y2 receptor subtype in a whole cell assay.
# Actone Functional Potency Assay
# The Neuropeptide Y (NPY) receptors are Gi-coupled seven trans-membrane receptors that mainly signal through the cAMP dependent pathway by inhibiting adenylate cyclase activity which results in a decrease of cAMP production from ATP. The Actone assay is based on a modified calcium channel that has a selective binding for cAMP, resulting in cellular calcium influx, detected by a calcium responsive dye. In order to measure decreased levels of cAMP, as result of NPY receptor activation, the β1/β2-adrenoreceptor agonist, isoproterenol, is added to activate adenylate cyclase and increases cAMP levels in the cell. Decreased cellular calcium concentrations, reflecting a decrease of cAMP levels due to NPY receptor activation, is detected as a decrease in fluorescence from the calcium sensitive dye.
# human Y5 receptor = target: T3, human Y5 receptor (Homo sapiens, UniProt Q15761); assay: Scintillation proximity assay (SPA) receptor binding, Y5; conditions: membranes of HEK-293 cells, [125I]-PYY(1-36)
# T3 construct: expressed in transfected cells; host or cells: HEK-293 (membrane preparation)
# T3 sequence (Q15761 1-445): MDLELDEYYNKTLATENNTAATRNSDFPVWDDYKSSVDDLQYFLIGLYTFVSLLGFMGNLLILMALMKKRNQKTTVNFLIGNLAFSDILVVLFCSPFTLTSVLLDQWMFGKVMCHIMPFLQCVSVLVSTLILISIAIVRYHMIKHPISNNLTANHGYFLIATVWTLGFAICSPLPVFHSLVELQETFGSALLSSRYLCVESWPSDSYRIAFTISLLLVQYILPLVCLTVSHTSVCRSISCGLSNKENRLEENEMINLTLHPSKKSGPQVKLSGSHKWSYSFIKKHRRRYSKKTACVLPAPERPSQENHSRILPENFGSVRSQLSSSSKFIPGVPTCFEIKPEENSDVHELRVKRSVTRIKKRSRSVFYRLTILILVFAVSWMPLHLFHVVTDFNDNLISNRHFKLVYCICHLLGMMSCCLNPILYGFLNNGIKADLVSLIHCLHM
# Experimental: as §1, §2, §3
# as §4, with “puromycin. […]” for “puromycin.”
# as §5
smiles,measurement,setting,value
"CC(C)CC(=O)N[C@@H](CCCNC(=N)N)C(=O)N1CCC[C@H]1C(=O)N[C@@H](CCC(=O)O)C(=O)N[C@@H](C)C(=O)N1CCC[C@H]1C(=O)NCC(=O)N[C@@H](CCCCNC(=O)CC[C@H](NC(=O)COCCOCCNC(=O)CC[C@H](NC(=O)CCCCCCCCCCCCCCCCC(=O)O)C(=O)O)C(=O)O)C(=O)N[C@@H](CC(=O)O)C(=O)N[C@@H](C)C(=O)N[C@@H](CO)C(=O)N1CCC[C@H]1C(=O)N[C@@H](CCC(=O)O)C(=O)N[C@@H](CCC(=O)O)C(=O)N[C@@H](CC(C)C)C(=O)N[C@@H](CCC(N)=O)C(=O)N[C@@H](CCCNC(=N)N)C(=O)N[C@@H](Cc1ccc(O)cc1)C(=O)N[C@@H](Cc1ccc(O)cc1)C(=O)N[C@@H](C)C(=O)N[C@@H](CCC(=O)O)C(=O)N[C@@H](CC(C)C)C(=O)N[C@@H](CCCNC(=N)N)C(=O)N[C@@H](Cc1c[nH]cn1)C(=O)N[C@@H](Cc1ccc(O)cc1)C(=O)N[C@@H](Cc1ccc(O)cc1)C(=O)N[C@@H](CC(N)=O)C(=O)N[C@@H](Cc1c[nH]c2ccccc12)C(=O)N[C@@H](CC(C)C)C(=O)N[C@H](C(=O)N[C@@H](CCCNC(=N)N)C(=O)N[C@@H](CCC(N)=O)C(=O)N[C@@H](CCCNC(=N)N)C(=O)N[C@@H](Cc1ccc(O)cc1)C(N)=O)[C@@H](C)O [Compound 53, N{alpha-4}-(3-Methylbutanoyl)-N{Epsilon-10}-[(4S)-4-carboxy-4-[[2-[2-[2-[[(4S)-4-carboxy-4-(17-carboxyheptadecanoylamino)butanoyl]amino]ethoxy]ethoxy]-acetyl]amino]butanoyl]-[Arg4,Lys10,Gln18,Glu23,Tyr28,Trp30,Leu31]-PYY(4-36)]",Ki,human Y1 receptor,> 10 µM
same,EC50,human NPY Y2 receptor,0.00077 µM
"CC(C)CC(=O)N[C@@H](CCCNC(=N)N)C(=O)N1CCC[C@H]1C(=O)N[C@@H](CCC(=O)O)C(=O)N[C@@H](C)C(=O)N1CCC[C@H]1C(=O)N1CCC[C@H]1C(=O)N[C@@H](CCCCNC(=O)CC[C@H](NC(=O)COCCOCCNC(=O)CC[C@H](NC(=O)CCCCCCCCCCCCCCCCC(=O)O)C(=O)O)C(=O)O)C(=O)N[C@@H](CC(=O)O)C(=O)N[C@@H](C)C(=O)N[C@@H](CO)C(=O)N1CCC[C@H]1C(=O)N[C@@H](CCC(=O)O)C(=O)N[C@@H](CCC(=O)O)C(=O)N[C@@H](CC(C)C)C(=O)N[C@@H](CCC(N)=O)C(=O)N[C@@H](CCCNC(=N)N)C(=O)N[C@@H](Cc1ccc(O)cc1)C(=O)N[C@@H](Cc1ccc(O)cc1)C(=O)N[C@@H](C)C(=O)N[C@@H](CO)C(=O)N[C@@H](CC(C)C)C(=O)N[C@@H](CCCNC(=N)N)C(=O)N[C@@H](Cc1c[nH]cn1)C(=O)N[C@@H](Cc1ccc(O)cc1)C(=O)N[C@@H](Cc1ccc(O)cc1)C(=O)N[C@@H](CC(N)=O)C(=O)N[C@@H](Cc1c[nH]c2ccccc12)C(=O)N[C@@H](CC(C)C)C(=O)N[C@H](C(=O)N[C@@H](CCCNC(=N)N)C(=O)N[C@@H](CCC(N)=O)C(=O)N[C@@H](CCCNC(=N)N)C(=O)N[C@@H](Cc1ccc(O)cc1)C(N)=O)[C@@H](C)O [Compound 56, N{alpha-4}-(3-Methylbutanoyl)-N{Epsilon-10}-[(4S)-4-carboxy-4-[[2-[2-[2-[[(4S)-4-carboxy-4-(17-carboxyheptadecanoylamino)butanoyl]amino]ethoxy]ethoxy]-acetyl]amino]butanoyl]-[Arg4,Pro9,Lys10,Gln18,Tyr28,Trp30,Leu31]-PYY(4-36)]",Ki,human Y1 receptor,> 10 µM
same,Ki,human Y5 receptor,0.279 µM
"CC(C)CC(=O)N[C@@H](CCCNC(=N)N)C(=O)N1CCC[C@H]1C(=O)N[C@@H](CCC(=O)O)C(=O)N[C@@H](C)C(=O)N1CCC[C@H]1C(=O)NCC(=O)N[C@@H](CCCCNC(=O)CC[C@H](NC(=O)COCCOCCNC(=O)CC[C@H](NC(=O)CCCCCCCCCCCCCCCCC(=O)O)C(=O)O)C(=O)O)C(=O)N[C@@H](CC(=O)O)C(=O)N[C@@H](C)C(=O)N[C@@H](CO)C(=O)N1CCC[C@H]1C(=O)N[C@@H](CCC(=O)O)C(=O)N[C@@H](CCC(=O)O)C(=O)N[C@@H](CC(C)C)C(=O)N[C@@H](CCC(N)=O)C(=O)N[C@@H](CCCNC(=N)N)C(=O)N[C@@H](Cc1ccc(O)cc1)C(=O)N[C@@H](Cc1ccc(O)cc1)C(=O)N[C@@H](C)C(=O)N[C@@H](CO)C(=O)N[C@@H](CC(C)C)C(=O)N[C@@H](CCCNC(=N)N)C(=O)N[C@@H](Cc1c[nH]cn1)C(=O)N[C@@H](Cc1ccc(O)cc1)C(=O)N[C@@H](Cc1ccc(O)cc1)C(=O)N[C@@H](CC(N)=O)C(=O)N[C@@H](Cc1c[nH]c2ccccc12)C(=O)N[C@@H](CC(C)C)C(=O)N[C@H](C(=O)N[C@@H](CCCNC(=N)N)C(=O)N[C@@H](CCC(N)=O)C(=O)N[C@@H](CCCNC(=N)N)C(=O)N[C@@H](Cc1ccc(O)cc1)C(N)=O)[C@@H](C)O [Compound 59, N{alpha-4}-(3-Methylbutanoyl)-N{Epsilon-10}-[(4S)-4-carboxy-4-[[2-[2-[2-[[(4S)-4-carboxy-4-(17-carboxyheptadecanoylamino)butanoyl]amino]ethoxy]ethoxy]-acetyl]amino]butanoyl]-[Arg4,Lys10,Gln18,Tyr28,Trp30,Leu31]-PYY-(4-36)]",Ki,human Y1 receptor,> 10 µM
same,Ki,human Y5 receptor,0.279 µM
